Assay results from US20040101521A1, “Iron sequestration or elimination to reduce neurodegeneration or Parkinsons disease progression” (The Buck Institute for Research on Aging, priority 2002, published 2004).

Assays:
MPTP-induced toxicity = assay: Striatal dopamine, DOPAC and HVA by HPLC after MPTP; format: in vivo, mouse
Protocol: (§1) Animals were injected with either 15 mg/kg body weight MPTP or saline every 2 hrs, 4 doses. Dopamine, DOPAC, and HVA or MPP+ from dissected striata were analyzed by I-PLC using a 5 micrometer C-18 reverse phase column and precolumn (Brownlee Labs) followed by electrochemical detection with a glassy carbon electrode (Klivenyi et al. (2000) J. Neurosci. 20: 1-7).

[1] = mouse, in vivo; cited from earlier work
plaque formation = conditions: Cherny et al. 2001; cited from earlier work
[2] = Phase II, similar dosage, with B12 supplementation; cited from earlier work
[3] = test system: MPTP-induced dopaminergic SN cell loss; assay: Stereological TH+ SN neuron counts after MPTP; format: in vivo, mouse
Protocol: Neuronal counts were performed on TH+ positive SN neurons using the unbiased dissector method (West (1993) Neurobiol. Aging 14: 275-285). Fixed coronal brain sections (40 μm) were immunostained with TH antibody (1:500 dilution, Chemicon), coverslipped in aqueous medium and TH+ cells counted from a total of 15-20 sections in each field per brain (i.e. every second section) at a magnification of 100× using the optical fractionator approach.
as §1

[4] = test system: MPTP-induced oxidative stress; assay: SN GSH levels after MPTP; format: in vivo, mouse; conditions: CQ pretreated animals, 24 hrs after MPTP, n=6
Protocol: Following MPTP or saline injection, GSH levels were measured in the SN by the method of Griffith (Griffith (1980) Anal. Biochem. 106; 207-212).

[5] = Yassin et al. 2000; cited from earlier work
[6] = Total SN iron content by mass spectrometry and MRI in CQ-fed mice; format: in vivo, mouse; conditions: CQ 30 mg/kg daily oral gavage, 8 weeks, C57B1 mice
Protocol: Mice were housed according to standard animal care protocols, fed ad libitum, kept on a 12-hr light/dark cycle and maintained in a pathogen-free environment in the Buck Institute Vivarium. Animals used for studies were young adults (2-6 months of age). […] For CQ studies, C57B1 mice were obtained from Jackson Labs and randomized for therapy trials. CQ was suspended in 0.05% carboxymethylcellulose (Sigma) and delivered via oral gavage at a daily dosage of 30 mg/kg as previously described for a period of 8 weeks (Cherny et al. (2001) Neuron 30: 665-676); controls received vehicle alone.
MRI studies were performed using a Bruker AMX500 11.7 tesla MRI system as previously described (Gilissen et al. (1998) Am. J. Primatol. 45: 291-299). Brains were fixed as described above and MRI performed in the coronal plane. Comparisons of SN hypointensity (dark area) on T2-weighted MR samples encompassing SNc, SNr, and red nucleus were performed (IPLab Spectrum, Scientific Image Processing from Scanalytics, Inc.)(Morgan et al., 1998). Intensity was normalized using cortical white matter as control.
SN was dissected, snap frozen in liquid nitrogen, lypholized and dry weight/tissue measured. Preweighed lypholized samples were next taken up in 0.1 ml of concentrated nitric acid (Aristar, BDH) and allowed to digest overnight. […]

[7] = test system: MPTP-mediated oxidative stress; assay: Slot blot of 4-HNE-protein conjugates and protein carbonyls in SN after MPTP; format: in vivo, mouse; conditions: CQ pretreated animals, 24 hrs after MPTP, n=6
Protocol: SN were dissected and homogenized in 10 mM HEPES-KOH, pH 7.2, 2 mM EDTA, 0.1% CHAPS, 5 mM dithiothreitol (DTT), 1 mM phenylmethylsulfonyl fluoride, 10 μg/ml pepstatin A, 10 μg/ml aprotinin, and 20 μg/ml leupeptin (Nicholson et al. (1995) Nature 376: 37-43). 15 μg of total protein from each sample was either run on a 15% SDS-PAGE gel (BioRad) and transferred to nitrocellulose membrane or directly slotted onto membrane. […] Autoradiography was performed with enhanced chemiluminescence (Amersham Pharmacia). For 4HNNE-protein conjugates and protein carbonyls, relative optical band density were quantified using a Chemilmager 5500 (Alpha Innotech Corporation). Reported values are the results of three independent experiments.

[8] = Open field analysis of spontaneous motor activity; format: in vivo, mouse; conditions: mice fed CQ up to 8 weeks vs. saline-fed, n=8
Protocol: 6-8 mice in each category were tested. Behavioral parameters were monitored in a Coulbourn Instrument Tru Scan activity monitor. Motor activities were recorded every 100 ms for a 10 minute period. Tru Scan 99 software was used to generate experimental protocols and to acquire and store the data. The data was exported to EXCEL and analyzed via one way ANOVA.

monoamine oxidase-B = assay: MAO-B activity in brain homogenates; format: in vivo, mouse; conditions: CQ-fed, n=4
Protocol: Brain homogenates were analyzed by the toulene extraction method using 10 μM 14-C labeled PEA as substrate (NEN, […]) as previously described (Wei et al. (1996) J. Neurosci. Res. 46: 666-673; Wei et al. (1997) J. Neurosci. Res. 50: 618-626). Values are reported as cpm/μg protein.

[9] = lipophilic; cited from earlier work

SMILES: Oc1c(I)cc(Cl)c2cccnc12 [CQ, 5-chloro-7-iodo-8-hydroxyquinoline]
- Difference in striatal dopamine levels, saline vs. CQ-fed (MPTP-induced toxicity; absence of MPTP treatment): No significant difference
- Loss of striatal dopamine following MPTP (MPTP-induced toxicity; animals pretreated with CQ, 7 days after MPTP): 41%
- Toxicity of the compound in mice [1]: lack of toxicity
- Plaque formation and behavioral declines in AD transgenic mouse model (plaque formation): inhibit plaque formation and accompanying behavioral declines
- Adverse effects attributable to CQ administration [2]: No adverse effects
- Decrease in SN TH+ cell numbers following MPTP ([3]; CQ-fed animals, 7 days after MPTP): 25%
- SN TH+ cell numbers ([3]; CQ-fed, MPTP-treated, n=5): 11,462±915
- Change in SN GSH following MPTP [4]: no significant changes
- Depletion in systemic iron levels [5]: does not result in depletion
- Levels of brain and serum vitamin B12 [5]: lower levels
- Reduction of total SN iron levels, CQ-fed vs. saline-fed animals [6]: approximately 30%
- Change in 4-HNE-protein conjugates in SN following MPTP [7]: no significant changes
- Change in protein carbonyl levels in SN following MPTP [7]: no significant changes
- Adverse behavioral effects in open field tests [8]: no significant signs of adverse behavioral effects
- MAO-B activity (monoamine oxidase-B): 4500±950 cpm/μg protein
- Blood-brain barrier passage [9]: freely crosses the blood-brain barrier
